Source: ChEMBL document CHEMBL3425423, “Hydroxy tricyclic 1,5-naphthyridinone oxabicyclooctane-linked novel bacterial topoisomerase inhibitors as broad-spectrum antibacterial agents-SAR of RHS moiety (Part-3)” (Bioorg Med Chem Lett, 2015)
≈ marks a conversion by molar mass, not a printed value.

Experiments:
Streptococcus pneumoniae [1] = experiment: Antibacterial activity against Streptococcus pneumoniae IID554; type: functional; conditions: Streptococcus pneumoniae, IID554; read-out: MIC
[2] = molecular target: T1, Voltage-gated inwardly rectifying potassium channel KCNH2 (Homo sapiens, UniProt Q12809); experiment: Inhibition of human ERG expressed in CHO cells measured over 5 mins by patch clamp assay
T1 sequence (Q12809 whole entry): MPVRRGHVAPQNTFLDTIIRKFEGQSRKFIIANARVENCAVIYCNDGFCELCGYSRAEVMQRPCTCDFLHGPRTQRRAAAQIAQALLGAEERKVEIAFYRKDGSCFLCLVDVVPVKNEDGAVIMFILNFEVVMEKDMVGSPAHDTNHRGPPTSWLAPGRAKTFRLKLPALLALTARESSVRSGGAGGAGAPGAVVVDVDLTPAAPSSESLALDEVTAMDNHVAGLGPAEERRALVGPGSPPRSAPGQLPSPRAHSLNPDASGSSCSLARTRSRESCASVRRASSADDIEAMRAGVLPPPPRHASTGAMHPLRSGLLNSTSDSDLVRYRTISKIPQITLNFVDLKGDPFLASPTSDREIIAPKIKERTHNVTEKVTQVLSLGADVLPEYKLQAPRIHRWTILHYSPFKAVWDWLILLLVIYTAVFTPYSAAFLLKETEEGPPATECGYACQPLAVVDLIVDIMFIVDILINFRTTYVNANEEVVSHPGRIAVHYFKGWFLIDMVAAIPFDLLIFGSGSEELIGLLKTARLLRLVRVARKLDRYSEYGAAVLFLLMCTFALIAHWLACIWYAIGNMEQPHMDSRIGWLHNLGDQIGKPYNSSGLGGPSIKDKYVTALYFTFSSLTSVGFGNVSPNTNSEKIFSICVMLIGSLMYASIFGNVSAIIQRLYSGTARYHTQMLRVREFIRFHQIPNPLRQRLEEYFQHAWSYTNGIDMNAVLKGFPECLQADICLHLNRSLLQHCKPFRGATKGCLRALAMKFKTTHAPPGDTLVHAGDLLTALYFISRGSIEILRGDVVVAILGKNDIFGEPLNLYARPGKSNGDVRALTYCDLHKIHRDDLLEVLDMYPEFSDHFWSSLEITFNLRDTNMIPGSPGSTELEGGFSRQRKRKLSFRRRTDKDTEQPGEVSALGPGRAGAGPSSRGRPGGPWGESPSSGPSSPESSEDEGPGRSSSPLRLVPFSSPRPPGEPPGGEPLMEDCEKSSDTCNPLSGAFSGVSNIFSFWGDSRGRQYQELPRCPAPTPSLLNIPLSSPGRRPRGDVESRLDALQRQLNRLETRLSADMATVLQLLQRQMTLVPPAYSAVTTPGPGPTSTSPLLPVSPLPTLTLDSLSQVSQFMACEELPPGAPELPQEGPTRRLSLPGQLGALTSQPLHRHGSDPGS

[3] = molecular target: T1, Voltage-gated inwardly rectifying potassium channel KCNH2; experiment: Displacement of MK499 from human ERG
Mus musculus = experiment: Dose normalized AUC in C57BL/6 mouse at 1 mg/kg, iv and 2 mg/kg, po; type: ADME, organism-based; conditions: in vivo
[4] = Half life in C57BL/6 mouse at 1 mg/kg, iv and 2 mg/kg, po; type: ADME, organism-based; conditions: in vivo
Staphylococcus aureus [5] = experiment: Antibacterial activity against Staphylococcus aureus Smith infected in po dosed CD1 mouse administered at 0.5 hrs post infection; type: functional
Staphylococcus aureus [6] = experiment: Antibacterial activity against Staphylococcus aureus Smith; type: functional; conditions: Staphylococcus aureus, Smith; read-out: MIC
Escherichia coli = experiment: Antibacterial activity against Escherichia coli ATCC 25922; type: functional; conditions: Escherichia coli, ATCC 25922; read-out: MIC
[7] = Volume of distribution at steady state in C57BL/6 mouse at 1 mg/kg, iv and 2 mg/kg, po; type: ADME, organism-based; conditions: in vivo, read-out: Vdss
Staphylococcus aureus [8] = experiment: Antibacterial activity against Staphylococcus aureus Smith infected in iv dosed CD1 mouse administered at 0.5 hrs post infection; type: functional
Pseudomonas aeruginosa = experiment: Antibacterial activity against Pseudomonas aeruginosa PAO1; type: functional; conditions: Pseudomonas aeruginosa, PAO1; read-out: MIC
Staphylococcus aureus [9] = experiment: Ratio of MIC for quinolone-resistant Staphylococcus aureus MS5935 to MIC for quinolone-sensitive Staphylococcus aureus; type: functional
[10] = Plasma clearance in C57BL/6 mouse at 1 mg/kg, iv and 2 mg/kg, po; type: ADME, organism-based
Enterococcus faecalis = experiment: Antibacterial activity against Enterococcus faecalis ATCC 29212; type: functional; conditions: Enterococcus faecalis, ATCC 29212; read-out: MIC
[11] = Oral bioavailability in C57BL/6 mouse at 2 mg/kg; type: ADME, organism-based; conditions: in vivo
Enterococcus faecium = experiment: Antibacterial activity against VanA-type vancomycin-resistant Enterococcus faecium A2373; type: functional; conditions: Enterococcus faecium, A2373; read-out: MIC
Acinetobacter baumannii = experiment: Antibacterial activity against Acinetobacter baumannii IID876; type: functional; conditions: Acinetobacter baumannii, IID876; read-out: MIC
Staphylococcus aureus [12] = experiment: Antibacterial activity against Staphylococcus aureus Smith infected in po dosed ICR mouse assessed as survival rate administered at 1 hr post infection measured over 7 days; type: functional
Staphylococcus aureus [13] = experiment: Antibacterial activity against Staphylococcus aureus Smith infected in iv dosed ICR mouse assessed as survival rate administered at 1 hr post infection measured over 7 days; type: functional
Staphylococcus aureus [14] = experiment: Antibacterial activity against Staphylococcus aureus; type: functional
Streptococcus pneumoniae [15] = experiment: Antibacterial activity against Streptococcus pneumoniae; type: functional
Staphylococcus aureus [16] = experiment: Antibacterial activity against quinolone-sensitive Staphylococcus aureus MS5935
Staphylococcus aureus [17] = experiment: Antibacterial activity against quinolone-resistant Staphylococcus aureus MS5935; type: functional

SMILES	MIC (Streptococcus pneumoniae [1])	AUC/dose (Mus musculus)	half-life [4]	MIC (Staphylococcus aureus [6])	MIC (Escherichia coli)	Vd [7]	ED90 (Staphylococcus aureus [8])	MIC (Pseudomonas aeruginosa)	Ratio (Staphylococcus aureus [9])	clearance [10]	MIC (Enterococcus faecalis)	bioavailability [11]	MIC (Enterococcus faecium)	MIC (Acinetobacter baumannii)	also measured
O=C1COc2cc(F)c(CNC34CCC(C[C@]5(O)Cn6c(=O)ccc7ncc(F)c5c76)(CC3)OC4)nc2N1	2 µg/mL (≈ 3.81 µM)	2.1 µM·h/mg/kg	1.7 h	0.5 µg/mL (≈ 0.951 µM)	8 µg/mL (≈ 15.2 µM)	1.3 L/kg	12 mg/kg	16 µg/mL (≈ 30.4 µM)	<4	15 mL/min/kg	4 µg/mL (≈ 7.61 µM)	39%	16 µg/mL (≈ 30.4 µM)	8 µg/mL (≈ 15.2 µM)	IC50 [2]: 333 µM; IC50 [3]: > 60 µM; ED90 (Staphylococcus aureus [5]): 15 mg/kg
O=c1ccc2ncc(F)c3c2n1C[C@@]3(O)CC12CCC(NCc3cc4c(cn3)OCCO4)(CC1)CO2	2 µg/mL (≈ 4.04 µM)	0.5 µM·h/mg/kg	2 h	0.5 µg/mL (≈ 1.01 µM)	16 µg/mL (≈ 32.4 µM)	17 L/kg	12 mg/kg	16 µg/mL (≈ 32.4 µM)	–	47 mL/min/kg	8 µg/mL (≈ 16.2 µM)	60%	16 µg/mL (≈ 32.4 µM)	8 µg/mL (≈ 16.2 µM)	ED50 (Staphylococcus aureus [12]): 5.1 mg/kg; ED50 (Staphylococcus aureus [13]): 11 mg/kg
O=c1ccc2ncc(=O)n3c2n1C[C@H]3CN1CCC(NCc2cc3c(cn2)OCCC3)CC1 [GEPOTIDACIN]	–	–	–	–	–	–	–	–	–	–	–	–	–	–	MIC90 (Staphylococcus aureus [14]): 0.5 µg/mL (≈ 1.11 µM); MIC90 (Streptococcus pneumoniae [15]): 0.25 µg/mL (≈ 0.557 µM)
C[C@H]1COc2c(N3CCN(C)CC3)c(F)cc3c(=O)c(C(=O)O)cn1c23.C[C@H]1COc2c(N3CCN(C)CC3)c(F)cc3c(=O)c(C(=O)O)cn1c23.O [LEVOFLOXACIN]	–	–	–	–	–	–	–	–	>64	–	–	–	–	–	MIC (Staphylococcus aureus [16]): 0.25 µg/mL; MIC (Staphylococcus aureus [17]): > 16 µg/mL
